This note sets out measurements from article PMC11855827, “High-Throughput Screening of Five Compound Libraries for Anthelmintic Activity and Toxicity Leads to the Discovery of Two Flavonoid Compounds” (International Journal of Molecular Sciences, 2025).

“And” between values parts separate entries of the source, which are not always exact repeats. Equal entries are not always repeated. Where two headings read alike, the source gives them in different places. Where a SMILES comes first, the peptide text is derived from it.

The test system of this assay is C. elegans.
The mark [1] stands for this setting: Table S2, C. elegans SS assay, 110 μM, averages of 4 data points.

`COc1ccc2c(c1)[nH]c1c(C)nccc12.Cl` [Harmine (hydrochloride)]: under setting [1], the “Percentage of motility inhibition 0 h” value came out at 22% and the “Percentage of motility inhibition 24 h” value amounted to 11%.

Consider `COC(=O)C1=CO[C@@H](O[C@@H]2O[C@H](CO)[C@@H](O)[C@H](O)[C@H]2O)[C@@H]2[C@@H](C)CC(=O)[C@]12O` [Hastatoside], for which, under setting [1], the “Percentage of motility inhibition 0 h” value was determined as 0% and the “Percentage of motility inhibition 24 h” value is listed as 8%. Turning to `C[C@@H]1O[C@@H](O[C@H]2[C@H](O[C@H]3CC[C@@]4(C)[C@@H](CC[C@]5(C)[C@@H]4CC=C4[C@@H]6CC(C)(C)CC[C@]6(C(=O)O[C@@H]6O[C@H](CO[C@@H]7O[C@H](CO)[C@@H](O[C@@H]8O[C@@H](C)[C@H](O)[C@@H](O)[C@H]8O)[C@H](O)[C@H]7O)[C@@H](O)[C@H](O)[C@H]6O)CC[C@]45C)[C@]3(C)CO)OC[C@H](O)[C@@H]2O)[C@H](O)[C@H](O)[C@H]1O` [Hederacoside C], under setting [1], the “Percentage of motility inhibition 0 h” value is on record as 18% and the “Percentage of motility inhibition 24 h” value amounted to 0%. As for `C[C@@H]1O[C@@H](O[C@H]2[C@H](O)[C@@H](O)[C@H](OC[C@H]3O[C@@H](OC(=O)[C@]45CCC(C)(C)C[C@H]4C4=CC[C@@H]6[C@@]7(C)CC[C@H](O[C@@H]8OC[C@H](O)[C@H](O)[C@H]8O)[C@@](C)(CO)[C@@H]7CC[C@@]6(C)[C@]4(C)CC5)[C@H](O)[C@@H](O)[C@@H]3O)O[C@@H]2CO)[C@H](O)[C@H](O)[C@H]1O` [Hederacoside D], under setting [1], the “Percentage of motility inhibition 0 h” value was found to be 2% and the “Percentage of motility inhibition 24 h” value stood at 2%. With `O=Cc1ccc(O[C@@H]2O[C@H](CO)[C@@H](O)[C@@H](O)[C@H]2O)cc1` [Helicid], under setting [1], the “Percentage of motility inhibition 0 h” value came out at 11% and the “Percentage of motility inhibition 24 h” value is 4%. `COc1ccc([C@@H]2CC(=O)c3c(O)cc(O[C@@H]4O[C@H](CO)[C@@H](O)[C@H](O)[C@H]4O)cc3O2)cc1O` [Hesperetin 7‐O‐glucoside]: under setting [1], the “Percentage of motility inhibition 0 h” value was determined as 16% and the “Percentage of motility inhibition 24 h” value was 14%. As for `COc1ccc([C@@H]2CC(=O)c3c(O)cc(O[C@@H]4O[C@H](CO[C@@H]5O[C@@H](C)[C@H](O)[C@@H](O)[C@H]5O)[C@@H](O)[C@H](O)[C@H]4O)cc3O2)cc1O` [Hesperidin], the “Percentage of motility inhibition 24 h” value under setting [1] is 2% and 0%. Take `Cl.Oc1ccc(CC2NCCc3cc(O)c(O)cc32)cc1` (stereo not drawn) [Higenamine (hydrochloride)]: under setting [1], the “Percentage of motility inhibition 0 h” value was found to be 0% and the “Percentage of motility inhibition 24 h” value worked out at 7%. For `Cl.Cl.NCCc1c[nH]cn1` [Histamine (dihydrochloride)], in that order: 0% and 3%. For `NCCc1c[nH]cn1.O=P(O)(O)O.O=P(O)(O)O` [Histamine (phosphate)], under setting [1], the “Percentage of motility inhibition 0 h” value was 6% and 9%. Consider `COc1c(O[C@@H]2O[C@H](CO)[C@@H](O)[C@H](O)[C@H]2O)cc2oc(-c3ccc(O)cc3)cc(=O)c2c1O` [Homoplantaginin], for which, under setting [1], the “Percentage of motility inhibition 0 h” value is listed as 19% and the “Percentage of motility inhibition 24 h” value turned out to be 5%. The corresponding values for `C[C@@H](CO)[C@@H]1CC[C@@]2(CC[C@]3(C)[C@H](CC[C@@H]4[C@@]5(C)CC[C@H](O[C@@H]6O[C@H](CO)[C@@H](O)[C@H](O)[C@H]6O[C@@H]6O[C@H](CO)[C@@H](O)[C@H](O)[C@H]6O)[C@@](C)(CO[C@@H]6O[C@H](CO)[C@@H](O)[C@H](O)[C@H]6O)[C@@H]5CC[C@]43C)[C@H]2O)CO1` [Hosenkoside A] are 15% and 19%. For `C[C@H](CO[C@@H]1O[C@H](CO)[C@@H](O)[C@H](O)[C@H]1O)[C@H]1CC[C@@]2(CC[C@]3(C)[C@H](CC[C@@H]4[C@@]5(C)CC[C@H](O[C@@H]6O[C@H](CO)[C@@H](O)[C@H](O)[C@H]6O[C@@H]6O[C@H](CO)[C@@H](O)[C@H](O)[C@H]6O)[C@@](C)(CO)[C@@H]5CC[C@]43C)[C@H]2O)CO1` [Hosenkoside B], in that order: 7% and 10%. For `C[C@H](CO[C@@H]1O[C@H](CO)[C@@H](O)[C@H](O)[C@H]1O)[C@H]1CC[C@@]2(CC[C@]3(C)[C@H](CC[C@@H]4[C@@]5(C)CC[C@H](O[C@@H]6O[C@H](CO)[C@@H](O)[C@H](O)[C@H]6O[C@@H]6OC[C@@H](O)[C@H](O)[C@H]6O)[C@@](C)(CO)[C@@H]5CC[C@]43C)[C@H]2O)CO1` [Hosenkoside F], under setting [1], the “Percentage of motility inhibition 0 h” value turned out to be 12% and the “Percentage of motility inhibition 24 h” value was 0%. Regarding `C[C@@H](CO[C@@H]1O[C@H](CO)[C@@H](O)[C@H](O)[C@H]1O)[C@@H]1CC[C@@]2(CC[C@]3(C)[C@H](CC[C@@H]4[C@@]5(C)CC[C@H](O[C@@H]6O[C@H](CO)[C@@H](O)[C@H](O)[C@H]6O[C@@H]6O[C@H](CO)[C@@H](O)[C@H](O)[C@H]6O)[C@@](C)(CO[C@@H]6O[C@H](CO)[C@@H](O)[C@H](O)[C@H]6O)[C@@H]5CC[C@]43C)[C@H]2O)CO1` [Hosenkoside K], under setting [1], the “Percentage of motility inhibition 0 h” value is reported as 10% and the “Percentage of motility inhibition 24 h” value was found to be 2%. For `C[C@@H](CO[C@@H]1O[C@H](CO)[C@@H](O)[C@H](O)[C@H]1O)[C@@H]1CC[C@@]2(CC[C@]3(C)[C@H](CC[C@@H]4[C@@]5(C)CC[C@H](O[C@@H]6O[C@H](CO)[C@@H](O)[C@H](O)[C@H]6O[C@@H]6OC[C@@H](O)[C@H](O)[C@H]6O)[C@@](C)(CO[C@@H]6O[C@H](CO)[C@@H](O)[C@H](O)[C@H]6O)[C@@H]5CC[C@]43C)[C@H]2O)CO1` [Hosenkoside M], in that order: 5% and 0%. With `CCC1=N[C@H]2C[C@@]3(C(=O)N(OC)c4ccccc43)[C@H]3CC1[C@@H]2CO3` [Humantenmine], under setting [1], the “Percentage of motility inhibition 0 h” value is 8% and the “Percentage of motility inhibition 24 h” value is 12%.

`C[C@H]1CC[C@H]2[C@H](C)[C@@H]3CC[C@@H]4[C@@H](C[C@H]5[C@H]4C[C@@H](O)[C@H]4C[C@@H](O)CC[C@@]45C)[C@@H]3CN2C1` [Hupehenine]: under setting [1], the “Percentage of motility inhibition 0 h” value was 0% and the “Percentage of motility inhibition 24 h” value was determined as 10%. Take `CC[C@H]1CN2CC[C@H]1C[C@@H]2[C@@H](O)c1ccnc2ccc(OC)cc12` [Hydroquinidine]: the “Percentage of motility inhibition 0 h” value under setting [1] is 29% and 50%. As to `COc1cc(O)c2c(=O)cc(-c3ccc(O)c(O)c3)oc2c1` [Hydroxygenkwanin], under setting [1], the “Percentage of motility inhibition 0 h” value is reported as 11% and the “Percentage of motility inhibition 24 h” value was 13%.

Turning to `C/C=C/C=C/C=C\CC/C=C/C(=O)NCC(C)(C)O` [Hydroxy‐α‐sanshool], under setting [1], the “Percentage of motility inhibition 0 h” value was 3% and the “Percentage of motility inhibition 24 h” value was 0%. The corresponding values for `C/C=C/C=C/C=C/CC/C=C/C(=O)NCC(C)(C)O` [Hydroxy‐β‐sanshool] are 46% and 10%. For `NCC(=O)N1CCC[C@H]1C(=O)O` [H‐Gly‐Pro‐OH] (H-Gly-Pro-OH), under setting [1], the “Percentage of motility inhibition 0 h” value worked out at 8% and the “Percentage of motility inhibition 24 h” value is given as 4%. As to `NCCCC[C@H](NC(=O)[C@H](Cc1c[nH]c2ccccc12)NC(=O)[C@@H](N)CCCCN)C(=O)O` [H‐Lys‐Trp‐Lys‐OH] (H-Lys-Trp-Lys-OH), the “Percentage of motility inhibition 0 h” value (110 μM) turned out to be 55%. In addition, the “Percentage of motility inhibition 24 h” value (110 µM) is on record as 10%.
